Results published in publication PMC11620503 (Antimicrobial Agents and Chemotherapy, 2024).
Values after ≈ are worked out from the molar mass of the structure shown. Read-outs that look alike come from different tables or passages of the source. Marks after values point to notes of the source that are not given here.

Legend:
Assay in all cases: MIC, broth microdilution
[1] = tested on: MEM-nonsusceptible Enterobacterales with serine-carbapenemases; format: cell-based
[2] = tested on: 207 Enterobacterales including carbapenem-resistant isolates; format: cell-based
[3] = tested on: 96 P. aeruginosa; format: cell-based, Pseudomonas aeruginosa; settings: Pseudomonas aeruginosa (96); for MIC50: read-out: MIC50; for MIC90: read-out: MIC90
[4] = tested on: serine-carbapenemase-producing isolates (Enterobacterales); format: cell-based
[5] = tested on: MBL-producing isolates (Enterobacterales); format: cell-based
[6] = tested on: MEM-nonsusceptible Enterobacterales; format: cell-based
[7] = tested on: MEM-, imipenem/relebactam-, and ceftolozane/tazobactam-nonsusceptible P. aeruginosa; format: cell-based, Pseudomonas aeruginosa; settings: for CLSI MIC interpretation I (intermediate) / CLSI MIC interpretation R (resistant) / CLSI MIC interpretation S (susceptible): CLSI breakpoints, marked c: breakpoints for β-lactam alone; for MIC50 / MIC90: Pseudomonas aeruginosa; for MIC50: read-out: MIC50; for MIC90: read-out: MIC90
[8] = tested on: MEM-nonsusceptible Enterobacterales with metallo-carbapenemases; format: cell-based
[9] = tested on: 55 isolates of A. baumannii; format: cell-based, Acinetobacter baumannii; settings: Acinetobacter baumannii (55); for MIC50: read-out: MIC50; for MIC90: read-out: MIC90
[10] = CLSI breakpoints, marked c: breakpoints for β-lactam alone
[11] = fixed concentration (μg/mL) in label
[12] = Ceftolozane/tazobactam-nonsusceptible Pseudomonas aeruginosa (45)
[13] = Imipenem/relebactam-nonsusceptible Pseudomonas aeruginosa (43)
[14] = MEM-nonsusceptible Pseudomonas aeruginosa (76)
[15] = Ceftolozane/tazobactam-nonsusceptible Pseudomonas aeruginosa (45), fixed concentration (μg/mL) in label
[16] = Imipenem/relebactam-nonsusceptible Pseudomonas aeruginosa (43), fixed concentration (μg/mL) in label
[17] = MEM-nonsusceptible Pseudomonas aeruginosa (76), fixed concentration (μg/mL) in label
[18] = MEM-nonsusceptible Enterobacterales with serine-carbapenemases (58), CLSI breakpoints, marked c: breakpoints for β-lactam alone, tigecycline: FDA breakpoints
[19] = All Enterobacterales (207), cefiderocol 205 isolates, CLSI breakpoints, marked c: breakpoints for β-lactam alone, tigecycline: FDA breakpoints
[20] = Enterobacterales with serine-carbapenemases (80), CLSI breakpoints, marked c: breakpoints for β-lactam alone, tigecycline: FDA breakpoints
[21] = Enterobacterales with metallo-carbapenemases (74), cefiderocol 73 isolates, CLSI breakpoints, marked c: breakpoints for β-lactam alone, tigecycline: FDA breakpoints
[22] = MEM-nonsusceptible Enterobacterales (127), cefiderocol 126 isolates, CLSI breakpoints, marked c: breakpoints for β-lactam alone, tigecycline: FDA breakpoints
[23] = MEM-nonsusceptible Enterobacterales with metallo-carbapenemases (55), cefiderocol 54 isolates, CLSI breakpoints, marked c: breakpoints for β-lactam alone, tigecycline: FDA breakpoints

C[C@@H](O)[C@H]1C(=O)N2C(C(=O)O)=C(SCCN=CN)C[C@H]12 [Imipenem]
CLSI MIC interpretation I (intermediate) [1]: 10.3% | CLSI MIC interpretation R (resistant) [1]: 84.5% | CLSI MIC interpretation S (susceptible) [1]: 5.2% | MIC50 [1]: 8 µg/mL (≈ 26.7 µM) | MIC90 [1]: > 32 µg/mL | CLSI MIC interpretation I (intermediate) [2]: 7.7% | CLSI MIC interpretation R (resistant) [2]: 55.6% | CLSI MIC interpretation S (susceptible) [2]: 36.7% | MIC50 [2]: 4 µg/mL (≈ 13.4 µM) | MIC90 [2]: 32 µg/mL (≈ 107 µM) | CLSI MIC interpretation I (intermediate) [3, 10]: 3.1% | CLSI MIC interpretation R (resistant) [3, 10]: 83.3% | CLSI MIC interpretation S (susceptible) [3, 10]: 13.5% | MIC50 [3, 11]: 16 µg/mL (≈ 53.4 µM) | MIC90 [3, 11]: > 32 µg/mL | CLSI MIC interpretation I (intermediate) [4]: 7.5% | CLSI MIC interpretation R (resistant) [4]: 68.8% | CLSI MIC interpretation S (susceptible) [4]: 23.8% | MIC50 [4]: 8 µg/mL (≈ 26.7 µM) | MIC90 [4]: > 32 µg/mL | CLSI MIC interpretation I (intermediate) [5]: 9.5% | CLSI MIC interpretation R (resistant) [5]: 70.3% | CLSI MIC interpretation S (susceptible) [5]: 20.3% | MIC50 [5]: 4 µg/mL (≈ 13.4 µM) | MIC90 [5]: > 32 µg/mL | CLSI MIC interpretation I (intermediate) [6]: 10.2% | CLSI MIC interpretation R (resistant) [6]: 79.5% | CLSI MIC interpretation S (susceptible) [6]: 10.2% | MIC50 [6]: 8 µg/mL (≈ 26.7 µM) | MIC90 [6]: > 32 µg/mL | CLSI MIC interpretation I (intermediate) [7, 12]: 0% | CLSI MIC interpretation R (resistant) [7, 12]: 95.6% | CLSI MIC interpretation S (susceptible) [7, 12]: 4.4% | CLSI MIC interpretation I (intermediate) [7, 13]: 0% | CLSI MIC interpretation R (resistant) [7, 13]: 97.7% | CLSI MIC interpretation S (susceptible) [7, 13]: 2.3% | CLSI MIC interpretation I (intermediate) [7, 14]: 2.6% | CLSI MIC interpretation R (resistant) [7, 14]: 93.4% | CLSI MIC interpretation S (susceptible) [7, 14]: 3.9% | MIC50 [7, 15]: > 32 µg/mL | MIC90 [7, 15]: > 32 µg/mL | MIC50 [7, 16]: > 32 µg/mL | MIC90 [7, 16]: > 32 µg/mL | MIC50 [7, 17]: 32 µg/mL (≈ 107 µM) | MIC90 [7, 17]: > 32 µg/mL | CLSI MIC interpretation I (intermediate) [8]: 9.1% | CLSI MIC interpretation R (resistant) [8]: 81.8% | CLSI MIC interpretation S (susceptible) [8]: 9.1% | MIC50 [8]: 16 µg/mL (≈ 53.4 µM) | MIC90 [8]: > 32 µg/mL | CLSI MIC interpretation I (intermediate) [9, 10]: 3.6% | CLSI MIC interpretation R (resistant) [9, 10]: 87.3% | CLSI MIC interpretation S (susceptible) [9, 10]: 9.1% | MIC50 [9, 11]: 32 µg/mL (≈ 107 µM) | MIC90 [9, 11]: > 32 µg/mL

CN(C)c1cc(NC(=O)CNC(C)(C)C)c(O)c2c1C[C@H]1C[C@H]3[C@H](N(C)C)C(O)=C(C(N)=O)C(=O)[C@@]3(O)C(O)=C1C2=O [tigecycline]
CLSI MIC interpretation I (intermediate) [1, 18]: 1.7^d % | CLSI MIC interpretation R (resistant) [1, 18]: 0.0^d % | CLSI MIC interpretation S (susceptible) [1, 18]: 98.3^d % | MIC Range ([1]; MEM-nonsusceptible Enterobacterales with serine-carbapenemases (58), fixed concentration (μg/mL) in label): 0.12 to 4 µg/mL | MIC50 ([1]; MEM-nonsusceptible Enterobacterales with serine-carbapenemases (58), fixed concentration (μg/mL) in label, read-out: MIC50): 1 µg/mL (≈ 1.71 µM) | MIC90 ([1]; MEM-nonsusceptible Enterobacterales with serine-carbapenemases (58), fixed concentration (μg/mL) in label, read-out: MIC90): 2 µg/mL (≈ 3.41 µM) | CLSI MIC interpretation I (intermediate) [2, 19]: 4.3^d % | CLSI MIC interpretation R (resistant) [2, 19]: 0.5^d % | CLSI MIC interpretation S (susceptible) [2, 19]: 95.2^d % | MIC Range ([2]; All Enterobacterales (207), cefiderocol 205 isolates, fixed concentration (μg/mL) in label): 0.12 to 16 µg/mL | MIC50 ([2]; read-out: MIC50): 0.5 µg/mL (≈ 0.854 µM) | MIC90 ([2]; read-out: MIC90): 2 µg/mL (≈ 3.41 µM) | MIC Range [3, 11]: 0.5 to 16 µg/mL | MIC50 [3, 11]: 4 µg/mL (≈ 6.83 µM) | MIC90 [3, 11]: 16 µg/mL (≈ 27.3 µM) | CLSI MIC interpretation I (intermediate) [4, 20]: 3.8^d % | CLSI MIC interpretation R (resistant) [4, 20]: 0.0^d % | CLSI MIC interpretation S (susceptible) [4, 20]: 96.3^d % | MIC Range ([4]; Enterobacterales with serine-carbapenemases (80), fixed concentration (μg/mL) in label): 0.12 to 4 µg/mL | MIC50 ([4]; Enterobacterales with serine-carbapenemases (80), fixed concentration (μg/mL) in label, read-out: MIC50): 1 µg/mL (≈ 1.71 µM) | MIC90 ([4]; Enterobacterales with serine-carbapenemases (80), fixed concentration (μg/mL) in label, read-out: MIC90): 2 µg/mL (≈ 3.41 µM) | CLSI MIC interpretation I (intermediate) [5, 21]: 8.1^d % | CLSI MIC interpretation R (resistant) [5, 21]: 0.0^d % | CLSI MIC interpretation S (susceptible) [5, 21]: 91.9^d % | MIC Range ([5]; Enterobacterales with metallo-carbapenemases (74), cefiderocol 73 isolates, fixed concentration (μg/mL) in label): 0.12 to 4 µg/mL | MIC50 ([5]; Enterobacterales with metallo-carbapenemases (74), cefiderocol 73 isolates, fixed concentration (μg/mL) in label, read-out: MIC50): 0.5 µg/mL (≈ 0.854 µM) | MIC90 ([5]; Enterobacterales with metallo-carbapenemases (74), cefiderocol 73 isolates, fixed concentration (μg/mL) in label, read-out: MIC90): 2 µg/mL (≈ 3.41 µM) | MIC90 ([5]; MBL-producing isolates, comparators, read-out: MIC90): ≤ 4 µg/mL | CLSI MIC interpretation I (intermediate) [6, 22]: 5.5^d % | CLSI MIC interpretation R (resistant) [6, 22]: 0.8^d % | CLSI MIC interpretation S (susceptible) [6, 22]: 93.7^d % | MIC Range ([6]; MEM-nonsusceptible Enterobacterales (127), cefiderocol 126 isolates, fixed concentration (μg/mL) in label): 0.12 to 16 µg/mL | MIC50 ([6]; MEM-nonsusceptible Enterobacterales (127), cefiderocol 126 isolates, fixed concentration (μg/mL) in label, read-out: MIC50): 1 µg/mL (≈ 1.71 µM) | MIC90 ([6]; MEM-nonsusceptible Enterobacterales (127), cefiderocol 126 isolates, fixed concentration (μg/mL) in label, read-out: MIC90): 2 µg/mL (≈ 3.41 µM) | MIC Range [7, 16]: 1 to 16 µg/mL | MIC Range [7, 17]: 1 to 16 µg/mL | MIC50 [7, 16]: 4 µg/mL | MIC90 [7, 16]: 16 µg/mL | MIC50 [7, 17]: 4 µg/mL (≈ 6.83 µM) | MIC90 [7, 17]: 16 µg/mL (≈ 27.3 µM) | MIC50 ([7]; Table 2, broth microdilution): 4 µg/mL (≈ 6.83 µM) | MIC90 ([7]; Table 2, broth microdilution): 16 µg/mL (≈ 27.3 µM) | MIC Range ([7]; last subgroup of Table 2 (heading not shown; 45 isolates by the percentages, ceftolozane/tazobactam 0% S), broth microdilution): 1 to 16 µg/mL | CLSI MIC interpretation I (intermediate) [8, 23]: 10.9^d % | CLSI MIC interpretation R (resistant) [8, 23]: 0.0^d % | CLSI MIC interpretation S (susceptible) [8, 23]: 89.1^d % | MIC Range ([8]; MEM-nonsusceptible Enterobacterales with metallo-carbapenemases (55), cefiderocol 54 isolates, fixed concentration (μg/mL) in label): 0.12 to 4 µg/mL | MIC50 ([8]; MEM-nonsusceptible Enterobacterales with metallo-carbapenemases (55), cefiderocol 54 isolates, fixed concentration (μg/mL) in label, read-out: MIC50): 1 µg/mL (≈ 1.71 µM) | MIC90 ([8]; MEM-nonsusceptible Enterobacterales with metallo-carbapenemases (55), cefiderocol 54 isolates, fixed concentration (μg/mL) in label, read-out: MIC90): 4 µg/mL (≈ 6.83 µM) | MIC Range [9, 11]: 0.25 to 2 µg/mL | MIC50 [9, 11]: 1 µg/mL (≈ 1.71 µM) | MIC90 [9, 11]: 1 µg/mL (≈ 1.71 µM)
